One test has as its system reporter gene. The test is described as follows: Transcription assay of p65 activation domain mutants. The following applies: for potency of p65 activation domain to induce the reporter gene, relative to wild type: mutated p65 activation domain. The format is cell-based. The source says:
Thus, in one embodiment of this invention, mutations are introduced into the activation domain by standard techniques known in the art, such as site-directed PCR based mutagenesis. In this embodiment, one to five, in some cases one to three, alterations in peptide sequence can be introduced into the DNA coding for the activation domain. Each of these mutations either alone or in combination with one or more other mutations may be readily assayed for its ability to induce the transcription of either transiently transfected or stably integrated target reporter gene constructs. For instance, a construct encoding a fusion protein containing multiple copies of the modified sequence and a DNA binding domain can be introduced into cells and the activity of the encoded fusion protein measured in transcription assays (with a responsive reporter gene construct) and compared to analogous fusion proteins containing wild-type activation domain sequence or a different mutation of interest.
The foregoing is illustrated in the case of the p65 transcription activation domains. Constructs are prepared encoding fusion proteins containing one or more p65 transcription activation domains and a DNA binding domain. The p65 domains may be wild-type (as a control) or may contain any of a variety of alterations in peptide sequence. These mutations can generally be introduced into a variety of p65-derived transcription activation domains. For example, M1 mutations can be introduced into plasmids carrying p65 activation domain coding regions between amino acids 533 and 550, or 361 and 550, or 280 and 550.
Exemplary mutations for p65 transcription activation domains include those intended to increase the potency of the p65 activation domain (including the M1, M2, M6, M7 and M8 mutations) and those intended to decrease the potency (generally slightly) of the activation domain. […] Mutations of the M4 and M5 class change the conserved serine and proline residues between amino-acids 361 and 450. […] In GST pull down assays, the region of the M4 and M5 mutations interacts with TFIIA. […] Thus, mutations for the practitioner to bear in mind include, but are not limited to, the following: […]
For orientation: A reporter such as luciferase makes a cellular process visible.

Test [1] deals with GAL4 responsive reporter gene. The experiment in a line: Rapamycin-induced expression of stably integrated GAL4-responsive SEAP reporter in transfected HT1080 B cells. The format is cell-based.

Entries after “also recorded” stand apart in the source; their conditions may differ.

Turning to 377-GALALGAGGQVL(SEQ ID NO:11) [M4], in the test on reporter gene, the “expression of target genes when fused to other acidic type activation domains” value is given as “synergistically” and the “potency of p65 activation domain to induce the reporter gene, relative to wild type” value (“potency … relative to wild type” below) is “very small effect”. As to `CO[C@H]1C[C@@H]2CC[C@@H](C)[C@@](O)(O2)C(=O)C(=O)N2CCCC[C@H]2C(=O)O[C@H]([C@H](C)C[C@@H]2CC[C@@H](O)[C@H](OC)C2)CC(=O)[C@H](C)/C=C(\C)[C@@H](O)[C@@H](OC)C(=O)[C@H](C)C[C@H](C)/C=C/C=C/C=C/1C` [rapamycin, reference compound], the “rapamycin concentration giving peak levels of reporter gene expression” value in test [1] (GF4 with RS, RMTS or RMTSV) is reported as 10 nM. Turning to 401-GALAQAGAGVG (SEQ ID NO:13) [M5], in the test on reporter gene, the “expression of target genes when fused to other acidic type activation domains” value is listed as “synergistically” and the “potency … relative to wild type” value was “very small effect”. Consider “529-GDEDASSIADMDASALLSQI (SEQ ID NO:9) [F 533 and F 541 to alanine residues]”, for which, in the test with reporter gene, the “potency … relative to wild type” value is “half of wild type level”.

B1: RMTSV: VP16 activation domain fused to RMTS (FRB-minimal lac repressor tetramerization domain-p65) (protein)
chain: EMWHEGLEEASRLYFGERNVKGMFEVLEPLHAMMERGPQTLKETSFNQAYGRDLMEAQEWCRKYMKSGNVKDLTQAWDLYYHVFRRISKVKRKTTLAPNTQTASPRALADSLMQLARQVSRLESGQDEFPTMVFPSGQISQASALAPAPPQVLPQAPAPAPAPAMVSALAQAPAPVPVLAPGPPQAVAPPAPKPTQAGEGTLSEALLQLQFDDEDLGALLGNSTDPAVFTDLASVDNSEFQQLLNQGIPVAPHTTEPMLMEYPEAITRLVTGAQRPPDPAPAPLGAPGLPNGLLSGDEDFSSIADMDFSALLSQISSLGDELHLDGEDVAMAHADALDDFDLDMLGDGDSPGPGFTPHDSAPYGALDMADFEFEQMFTDALGIDEYGG
modifications: left off: small tags and cut ends
For the molecule B1, the “reporter gene expression at 1 nM rapamycin” value in test [1] (GF4 DNA binding receptor, 1 nM rapamycin in the medium) was “induced the reporter gene expression robustly”. In addition, in test [1] (fixed amount of GF4, 10 nM rapamycin), the “reporter gene expression at the lowest level of activation domains expressed” value was “robust activation of reporter gene expression; also recorded: exceeded the level stimulated by the highest amount of RS fusion proteins”.
